# Assay results published in US20260308159A1, “BICYCLIC HETEROARYLAMIDES HAVING GPR68 MODULATING ACTIVITY” (RECURSION PHARMACEUTICALS, INC., priority 2023, published 2026).
# Target: T1, human GPR68 (Homo sapiens, UniProt Q15743)
# T1 construct: encoding full-length human GPR68 (uniprot ID: Q15743); expressed in transfected cells; host or cells: HEK293T
# Assay: GPR68 Biochemical Assay (Promega GloSensor cAMP assay, GPR68 antagonism)
# Type: cell-based
# Settings: HEK293T cells transiently expressing hGPR68, antagonism of pH 5.5 stimulated cAMP, 15 min, read-out: hGPR68 IC50
# Procedure: GPR68 antagonism was determined using the Promega GloSensor™ CAMP assay (F. I. Wang et al., Methods 2021, S1046-2023 (21) 00249-8). HEK293T cells (obtained from ECACC, Cat 12022001, Lot no. 17E044) were cultured in T175 flasks (Greiner, Cat 660175) in DMEM (Gibco, Cat 11995-065) supplemented with 10% Fetal Bovine Serum (Gibco Cat 16000-044), and 100 u/mL Pen-Strep (Gibco, Cat 15140) at 37° C. and 5% CO2. GPR68 expression was achieved by transient transfection with a mammalian expression plasmid encoding full-length human GPR68 (uniprot ID: Q15743) under control of a CMV promoter. The day before transfection, cell media was aspirated and HEK293T cells were incubated with accutase (Sigma, Cat A6964) for 3-4 minutes 37° C. and 5% CO2 before being manually detached with excess DMEM and trituration. Cell density was determined by automated cell counting (Countess, Invitrogen) and adjusted to 6×10^6 cells/20 mL and transferred to 15 cm dishes (Thermo Fisher, Cat 130183) for overnight incubation at 37° C. and 5% CO2. The next day separate mammalian expression plasmids encoding hGPR68 (4 μg) and Promega GloSensor (8 μg) were diluted to 1 mL in Opti-MEM (Thermo Fisher Scientific, Cat 31985070) and incubated with 30 μL of lipofectamine 3000 (also diluted to 1 mL in Opti-MEM) for 15 minutes at room temperature and subsequently added dropwise to the plated cells. Post transfection cells were then incubated at 37° C. and 5% CO2 for at least 16 hours before transfer to assay plates the following day. Transfer was conducted by washing cells with PBS and incubating with accutase for 3-4 minutes 37° C. and 5% CO2 before being manually detached with excess DMEM and mild trituration. The suspension was then centrifuged at 192 RCF for 4 minutes in a 50 mL centrifuge tube (Greiner, Cat 227261).
# Supernatant was removed by aspiration and the cell pellet was resuspended in DMEM+1% dialysed FBS (Gibco, Cat 26400-044) and 100 u/mL Pen-Strep to a cell density of 500 cells/μL. Cells were plated into poly-L-Lysine coated 384-well white assay plates (Corning, Cat 3570) at a final volume of 40 µL and a density of 20,000 cells/well before overnight incubation at 37° C. and 5% CO2. The following day media was manually ejected from the 384-well assay plate and replaced with 10 μL GloSensor substrate (Promega, Cat E1291) prepared in pH 8.0 assay buffer (1×HBSS, 10 mM HEPES, 10 mM MOPS). Cells were incubated with this solution for 60 minutes at room temperature in the dark. Test compounds or an equivalent volume of DMSO (vehicle) were added to compounds plates to create a 9-point, half-log concentration series for each compound with a maximum final assay concentration of 50 μM and a consistent final DMSO concentration of 0.5%. Assay buffer with 0.1% BSA and 0.01% ascorbic acid was prepared at three pHs: pH 8.0, pH 5.5 and pH 4.5. pH 8.0 and 4.5 were added to the compound plate as maximum and minimum effect controls whilst pH 5.5 was added to all compound wells to stimulate GPR68 to a level corresponding to […] of maximal stimulation after addition to the cells already in pH 8.0 (assay acceptance criteria range 70-90%). DMSO/Compound and buffer was added to the plated cells containing the GloSensor substrate and incubated for 15 minutes at room temperature before being read on a microplate reader (BMG PHERAstar, optic module LUM Plus with Gain 3600). Data was exported and analysed in excel and Graphpad prism (version 9). Assay QC acceptance criteria required the maximum and minimum controls to return a Z′≥0.5, the EC80 to be 80%±10% of expected and the reference ligand pIC50 to be within one-half-log unit of its historical IC50. Percent inhibition was calculated using the mean EC80 (pH 5.5) and mean minimum effect control (pH 8.0). Data were plotted as percentage inhibition, average±SEM. IC50, Emax, Emin, Actual max, actual min, R^2 and fit confidence were calculated using Graphpad Prism's sigmoidal dose-response function.
# T1 sequence (Q15743 whole entry): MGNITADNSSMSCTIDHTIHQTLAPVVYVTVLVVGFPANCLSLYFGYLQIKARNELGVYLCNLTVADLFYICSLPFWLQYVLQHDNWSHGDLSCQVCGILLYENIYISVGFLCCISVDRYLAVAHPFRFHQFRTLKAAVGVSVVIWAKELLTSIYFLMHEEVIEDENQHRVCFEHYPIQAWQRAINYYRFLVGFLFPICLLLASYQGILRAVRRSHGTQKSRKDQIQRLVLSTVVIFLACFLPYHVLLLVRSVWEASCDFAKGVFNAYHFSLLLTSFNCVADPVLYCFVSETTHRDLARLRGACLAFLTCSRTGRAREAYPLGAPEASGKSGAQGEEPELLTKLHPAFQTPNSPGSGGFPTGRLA
row,Compound,IC50 [nM]
1,"Cc1nc2c(C(=O)NC3CC(F)(F)C3)ccnn2c1C(N)=O [Compound 26, N8-(3,3-difluorocyclobutyl)-2-methyl-imidazo[1,2-b]pyridazine-3,8-dicarboxamide]",50 to 500
2,"Cc1nn2c(C(=O)N[C@H]3C[C@@H](OC(F)(F)F)C3)ccnc2c1C(N)=O [Compound 53, 2-methyl-N7-[cis-3-(trifluoromethoxy)cyclobutyl]pyrazolo[1,5-a]pyrimidine-3,7-dicarboxamide]",50 to 500
3,"COCc1nn2c(C(=O)NC3CS(=O)(=O)c4ccccc43)ccnc2c1C(N)=O (stereo not drawn) [Compound 168, N7-(1,1-dioxo-2,3-dihydrobenzothiophen-3-yl)-2-(methoxymethyl)pyrazolo[1,5-a]pyrimidine-3,7-dicarboxamide]",< 50
4,"CC(C)c1nn2c(C(=O)NC3CS(=O)(=O)c4ccccc43)ccnc2c1C(N)=O (stereo not drawn) [Compound 228, N7-(1,1-dioxo-2,3-dihydrobenzothiophen-3-yl)-2-isopropyl-pyrazolo[1,5-a]pyrimidine-3,7-dicarboxamide]",< 50
5,"NC(=O)c1cnn2c(C(=O)NC3CNc4ncccc4C3)ccnc12 (stereo not drawn) [Compound 20, N7-(1,2,3,4-tetrahydro-1,8-naphthyridin-3-yl)pyrazolo[1,5-a]pyrimidine-3,7-dicarboxamide]",5000 to 50000
6,"COCc1nn2c(C(=O)N[C@@H]3CCOc4cc(F)ccc43)ccnc2c1C(N)=O [Compound 166, N7-[(4R)-7-fluorochroman-4-yl]-2-(methoxymethyl)pyrazolo[1,5-a]pyrimidine-3,7-dicarboxamide]",< 50
7,"COCc1nn2c(C(=O)NC3COc4ccc(Cl)cc4C3)ccnc2c1C(N)=O (stereo not drawn) [Compound 114, N7-(6-chlorochroman-3-yl)-2-(methoxymethyl)pyrazolo[1,5-a]pyrimidine-3,7-dicarboxamide]",< 50
8,"NC(=O)c1c(C2CC2)nn2c(C(=O)NC3CC(F)(F)c4ccccc43)ccnc12 (stereo not drawn) [Compound 112, 2-cyclopropyl-N7-(3,3-difluoroindan-1-yl)pyrazolo[1,5-a]pyrimidine-3,7-dicarboxamide]",< 50
9,"COCc1nn2c(C(=O)Nc3cc(C(F)(F)F)ccn3)ccnc2c1C(N)=O [Compound 65, 2-(Methoxymethyl)-N7-[4-(trifluoromethyl)-2-pyridyl]pyrazolo[1,5-a]pyrimidine-3,7-dicarboxamide]",50 to 500
10,"COCc1nn2c(C(=O)NC3Cc4ccncc4C3)ccnc2c1C(N)=O (stereo not drawn) [Compound 170, N7-(6,7-dihydro-5H-cyclopenta[c]pyridin-6-yl)-2-(methoxymethyl)pyrazolo[1,5-a]pyrimidine-3,7-dicarboxamide]",< 50
11,"COCc1nn2c(C(=O)NC3CCC(F)(F)c4ccccc43)ccnc2c1C(N)=O (single isomer, unassigned) [Compound 175, N7-[-4,4-difluorotetralin-1-yl]-2-(methoxymethyl)pyrazolo[1,5-a]pyrimidine-3,7-dicarboxamide]",< 50
12,"COCc1nn2c(C(=O)Nc3ccc(F)c(F)c3)ccnc2c1C(N)=O [Compound 66, N7-(3,4-difluorophenyl)-2-(methoxymethyl)pyrazolo[1,5-a]pyrimidine-3,7-dicarboxamide]",< 50
13,"NC(=O)c1cnn2c(C(=O)NC3COc4ccccc4C3)ccnc12 (stereo not drawn) [Compound 6, N7-chroman-3-ylpyrazolo[1,5-a]pyrimidine-3,7-dicarboxamide]",50 to 500
14,"C[C@]1(F)C[C@H](NC(=O)c2ccnc3c(C(N)=O)cnn23)C1 [Compound 7, N7-(trans-3-fluoro-3-methyl-cyclobutyl)pyrazolo[1,5-a]pyrimidine-3,7-dicarboxamide]",5000 to 50000
15,"NC(=O)c1c(C2CC2)nn2c(C(=O)NC3Cc4cscc4C3)ccnc12 [Compound 134, 2-cyclopropyl-N7-(5,6-dihydro-4H-cyclopenta[c]thiophen-5-yl)pyrazolo[1,5-a]pyrimidine-3,7-dicarboxamide]",< 50
16,"NC(=O)c1c(C2CCCO2)nn2c(C(=O)N[C@H]3C[C@@H](OC(F)(F)F)C3)ccnc12 (stereo partly drawn) [Compound 203, 2-tetrahydrofuran-2-yl-N7-[cis-3-(trifluoromethoxy)cyclobutyl]pyrazolo[1,5-a]pyrimidine-3,7-dicarboxamide]",50 to 500
17,"COCc1nn2c(C(=O)NC3CCc4ccc(F)cc4C3)ccnc2c1C(N)=O (stereo not drawn) [Compound 82, N7-(7-fluorotetralin-2-yl)-2-(methoxymethyl)pyrazolo[1,5-a]pyrimidine-3,7-dicarboxamide]",< 50
18,"COCc1nn2c(C(=O)N[C@H]3CC[C@@H](C)CC3)ccnc2c1C(N)=O [Compound 84, 2-(methoxymethyl)-N7-(cis-4-methylcyclohexyl)pyrazolo[1,5-a]pyrimidine-3,7-dicarboxamide]",500 to 5000
19,"COCc1nn2c(C(=O)NC3Cc4ccccc4C3)ccnc2c1C(N)=S [Compound 149, 3-carbamothioyl-N-indan-2-yl-2-(methoxymethyl)pyrazolo[1,5-a]pyrimidine-7-carboxamide]",50 to 500
20,"COCc1nn2c(C(=O)NC3CCOc4cc(F)c(F)cc43)ccnc2c1C(N)=O (stereo not drawn) [Compound 182, N7-(6,7-difluorochroman-4-yl)-2-(methoxymethyl)pyrazolo[1,5-a]pyrimidine-3,7-dicarboxamide]",< 50
21,"COCc1nn2c(C(=O)NC3COc4ncccc43)ccnc2c1C(N)=O (stereo not drawn) [Compound 184, N7-(2,3-dihydrofuro[2,3-b]pyridin-3-yl)-2-(methoxymethyl)pyrazolo[1,5-a]pyrimidine-3,7-dicarboxamide]",< 50
22,"COCc1nn2c(C(=O)N[C@H]3CC[C@@H](OC(F)(F)F)CC3)ccnc2c1C(N)=O [Compound 132, 2-(methoxymethyl)-N7-[cis-4-(trifluoromethoxy)cyclohexyl]pyrazolo[1,5-a]pyrimidine-3,7-dicarboxamide]",50 to 500
23,"COCc1nn2c(C(=O)NC3(C)CC4(CC(F)(F)C4)C3)ccnc2c1C(N)=O [Compound 124, N7-(2,2-difluoro-6-methyl-spiro[3.3]heptan-6-yl)-2-(methoxymethyl)pyrazolo[1,5-a]pyrimidine-3,7-dicarboxamide]",500 to 5000
24,"Cc1nn2c(C(=O)NC3Cc4cccnc4C3)ccnc2c1C(N)=O (stereo not drawn) [Compound 49, N7-(6,7-dihydro-5H-cyclopenta[b]pyridin-6-yl)-2-methyl-pyrazolo[1,5-a]pyrimidine-3,7-dicarboxamide]",500 to 5000
25,"COCc1nn2c(C(=O)NC3CNc4ccccc4C3)ccnc2c1C(N)=O (stereo not drawn) [Compound 93, 2-(methoxymethyl)-N7-(1,2,3,4-tetrahydroquinolin-3-yl)pyrazolo[1,5-a]pyrimidine-3,7-dicarboxamide]",< 50

# Same assay, conditions: hGPR68 IC50, HEK293T cells transiently expressing hGPR68, antagonism of pH 5.5 stimulated cAMP, 15 min
row,Compound,IC50 [nM]
1,"NC(=O)c1c(C2CCOC2)nn2c(C(=O)NC3Cc4ccccc4C3)ccnc12 (stereo not drawn) [Compound 37, N7-indan-2-yl-2-tetrahydrofuran-3-yl-pyrazolo[1,5-a]pyrimidine-3,7-dicarboxamide]",< 50
2,"NC(=O)c1c(C2CCOC2)nn2c(C(=O)NC3CC(F)(F)C3)ccnc12 (stereo not drawn) [Compound 45, N7-(3,3-difluorocyclobutyl)-2-tetrahydrofuran-3-yl-pyrazolo[1,5-a]pyrimidine-3,7-dicarboxamide]",500 to 5000
